Activity calls are given as the source filed them. No cut-off for these calls is given here.

We go through 14 compounds from ChEMBL document CHEMBL4043071, “Neuroprotective Caffeoylquinic Acid Derivatives from the Flowers of Chrysanthemum morifolium” (J Nat Prod, 2017).

The subject of series [1] is SH-SY5Y. In words: Neuroprotective activity in human SH-SY5Y cells assessed as reduction in hydrogen peroxide-induced cytotoxicity by measuring cell viability level at 10 uM (reference value: 50.7+/- 2.6%). Type of series: functional.
Series [2] has as its system SH-SY5Y. Description: Neuroprotective activity in human SH-SY5Y cells assessed as reduction in oxygen-glucose deprivation-induced cytotoxicity at 10 uM relative to untreated control. In kind it is functional, cell-based.
For series [3], the system named is SH-SY5Y. Description: Neuroprotective activity in human SH-SY5Y cells assessed as reduction in glutamate-induced cytotoxicity at 10 uM relative to untreated control. In kind it is functional, cell-based.
Series [4] concerns SH-SY5Y. In words: Cytotoxicity against human SH-SY5Y cells assessed as reduction in cell viability level at 10 uM relative to untreated control. In kind it is cell-based.

On to `O=C(/C=C/c1ccc(O)c(O)c1)O[C@@H]1C[C@@](O)(C(=O)O)C[C@@H](O)[C@@H]1OC(=O)[C@@H]1[C@@H](c2ccc(O)c(O)c2)[C@@]2(CO)C=CC(=O)[C@@H]1O2`, for which the Activity in the series on SH-SY5Y [1] is 75.6%. Further, the outcome in the series on SH-SY5Y [2] and with SH-SY5Y [3] was inactive.

`O=C(/C=C/c1ccc(O)c(O)c1)O[C@@H]1[C@H](O)C[C@@](O)(C(=O)O)C[C@H]1OC(=O)/C=C/c1ccc(O)c(O)c1`: the Activity in the series on SH-SY5Y [1] is 75.2%. Besides, the result in the series with SH-SY5Y [2] and with SH-SY5Y [3] was inactive.

Turning to `O=C(/C=C/c1ccc(O)c(O)c1)O[C@@H]1[C@H](O)C[C@@](O)(C(=O)O)C[C@H]1OC(=O)[C@@H]1[C@@H](c2ccc(O)c(O)c2)[C@@]2(CO)C=CC(=O)[C@@H]1O2`, in the series with SH-SY5Y [1], the Activity was 78.4%. The result with SH-SY5Y [2] and in the series on SH-SY5Y [3] was inactive.

Take `CC(=O)OC[C@H]1O[C@@H](Oc2cc(O)c3c(=O)cc(-c4ccc(O)c(O)c4)oc3c2)[C@H](O)[C@@H](O)[C@@H]1O`: the result with SH-SY5Y [2] and in the series on SH-SY5Y [3] was inactive.

For `O=C(O)[C@H]1O[C@@H](Oc2cc(O)c3c(=O)cc(-c4ccc(O)c(O)c4)oc3c2)[C@H](O)[C@@H](O)[C@@H]1O`, the Activity in the series with SH-SY5Y [1] is 80.9%. Besides, the outcome with SH-SY5Y [2] and with SH-SY5Y [3] was inactive.

As to `O=C(/C=C/c1ccc(O)c(O)c1)O[C@@H]1C[C@](O)(C(=O)O)C[C@@H](O)[C@H]1O`, the outcome with SH-SY5Y [1], with SH-SY5Y [2] and in the series on SH-SY5Y [3] was inactive.

Turning to `O=c1cc(-c2ccc(O)c(O)c2)oc2cc(O[C@@H]3O[C@H](CO)[C@@H](O)[C@H](O)[C@H]3O)cc(O)c12` [GALUTEOLIN], the Activity in the series on SH-SY5Y [1] was 87.6%. The outcome in the series with SH-SY5Y [2] and with SH-SY5Y [3] was inactive.

For the compound `CCCC[C@@H]1OC(=O)c2ccccc21` [(3S)-BUTYLPHTHALIDE], the Activity in the series with SH-SY5Y [1] came out at 73.9%.

Turning to `CC(=O)O[C@@H]1[C@H](O)C[C@@](O)(C(=O)O)C[C@H]1OC(=O)/C=C/c1ccc(O)c(O)c1`, the Activity result with SH-SY5Y [4] is listed as “Toxic”. Further, the result in the series with SH-SY5Y [2] and in the series with SH-SY5Y [3] was inactive.

With `O=C(/C=C/c1ccc(O)c(O)c1)O[C@@H]1C[C@@](OC(=O)/C=C/c2ccc(O)c(O)c2)(C(=O)O)C[C@@H](O)[C@@H]1O` [CYNARIN], in the series with SH-SY5Y [1], the Activity came to 77.2%. Moreover, the outcome in the series with SH-SY5Y [2] and in the series on SH-SY5Y [3] was inactive.

On to `COc1ccc(-c2cc(=O)c3c(O)cc(O[C@@H]4O[C@H](CO)[C@@H](O)[C@H](O)[C@H]4O)cc3o2)cc1O`, for which the outcome in the series with SH-SY5Y [2] and in the series with SH-SY5Y [3] was inactive.

For `O=c1cc(-c2ccc(O[C@@H]3O[C@H](CO)[C@@H](O)[C@H](O)[C@H]3O)c(O)c2)oc2cc(O[C@@H]3O[C@H](CO)[C@@H](O)[C@H](O)[C@H]3O)cc(O)c12`, the result in the series on SH-SY5Y [2] and in the series on SH-SY5Y [3] was inactive.

Regarding `O=C(/C=C/c1ccc(O)c(O)c1)O[C@@H]1[C@H](O)C[C@@](O)(C(=O)O)C[C@H]1OC(=O)[C@@H]1[C@@H]2O[C@@](CO)(C=CC2=O)[C@H]1c1ccc(O)c(O)c1`, the Activity with SH-SY5Y [1] is recorded as 76.7%. The outcome in the series with SH-SY5Y [2] and in the series on SH-SY5Y [3] was inactive.

Take `O=c1cc(-c2ccc(O)cc2)oc2cc(O[C@@H]3O[C@H](CO)[C@@H](O)[C@H](O)[C@H]3O)cc(O)c12`: the result in the series on SH-SY5Y [2] and in the series on SH-SY5Y [3] was inactive.
